Experiment [1] deals with cow's milk-specific T-cell line TCL A. Put plainly: T-cell proliferation assay. It is filed as cell-based, human. Conditions: synthetic peptide, SI≥2 considered positive, FIG. 2. The protocol: (§1) Synthetic peptides were obtained from JPT technologies. Only peptides containing at least 9 AAs were taken into account, as this is the minimal size for binding to MHC class II molecules and subsequent T-cell recognition (Holland et al, Front Immunol 2013 Jul. 1; 4:172.) Synthetic peptides (JPT technologies) identical to the peptides identified in all batches of the HP of example 1 were dissolved in dimethylsulfoxide (Sigma Aldrich) at a concentration of 5.3 mM. The peptides were tested on cow's milk-specific T-cell lines (TCLs) from three different donors. The peptides were tested on cow's milk protein-specific T-cell lines (TCLs) from three infant donors, diagnosed with cow's milk protein allergy. […] Proliferation was determined as described previously (Ruiter et al, Clin Exp Allergy 2006, 36(3):303-310). Stimulation indexes (Sls, ratio between proliferation of allergen/peptide-stimulated and non-stimulated T cells) were calculated and a SI≥2 was considered positive.
(§2) To confirm that the peptides identified in HP were recognized by T cells, synthetic peptides identical to these identified peptides were tested on cow's milk-specific human TCLs. As there was a considered overlap between the identified peptides, five peptides were tested (Table 7) that were identified in all batches and differed with more than 9A from each other. All tested peptides were able to induce proliferation (FIG. 2). […] This was also seen with the in silico prediction data (data not shown). […] As peptide LIV . . . […] SLL (AA #1-32) did, the region containing AA #28-32 (DISLL) was essential for the response of TCL A. Unexpectedly, TCL C recognized peptide LIV . . . AAS (AA #1-27), while the longer peptide containing the same sequence with 5 additional AAs, LIV . . .

Experiment [2] relates to cow's milk-specific T-cell line TCL C. Put plainly: T-cell proliferation assay. It is filed as cell-based, human. Particulars: synthetic peptide, SI≥2 considered positive, FIG. 2. As for the experimental part:
as §1, §2

As to “LIVTQTMKGLDIQKVAGTWYSLAMAAS (beta-lactoglobulin peptide fragment) [SEQ ID NO: 9]”, the “T cell proliferation (stimulation index)” value in experiment [1] is given as “not able to induce proliferation”; in experiment [2] it was “recognized”.
On to “LIVTQTMKGLDIQKVAGTWYSLAMAASDISLL (beta-lactoglobulin peptide fragment) [SEQ ID NO: 11]”, for which, in experiment [2], the “T cell proliferation (stimulation index)” value is “not able to induce a proliferative response”.

The values are drawn from patent US20210227869A1, “Formula with a specific beta-lactoglobulin peptide” (N.V. Nutricia, priority 2018, published 2021).
